Here are results for nine molecules from patent US9205124B2, “Compounds for enzyme inhibition” (Onyx Therapeutics, Inc., priority 2005, dated 2015).

In one assay the test system is proteasome CT-L activity. Put plainly: Proteasome CT-L activity in blood lysates of mice one hour after oral dosing (LLVY-AMC cleavage). The format is in vivo. Particulars: 20 mg/kg PO, one hour post-dosing, vs vehicle-dosed cohort. The method, then:
Compounds were formulated in 10% PS80/NaCitrate (pH 3) vehicle and administered to mice orally (PO) (3 animals/cohort). One hour post-dosing, the animals were sacrificed and the following tissues harvested: blood, brain, adrenal gland, heart and liver. Whole blood (˜200 μl) was washed twice with PBS and lysed by hypotonic shock (300 μl 50 mM Tris pH 8, 5 mM EDTA). Blood lysates were stored at −80° C. until assayed. Blood lysates were clarified by centrifugation in a microcentrifuge. The CT-L specific activity of proteasome in each lysate was evaluated by determining: a) the protein concentration by modified Bradford assay with bovine gamma globulin as a standard; and b) the rate of cleavage of the fluorogenic proteasome substrate LLVY-AMC. The percent proteasome activity for the analog-treated animals was calculated by dividing of the average specific activity for each analog-dosed cohort by the average specific activity of the vehicle-dosed cohort. Percent proteasome inhibition was calculated by subtracting percent proteasome activity from 100.
With `COC[C@H](NC(=O)c1cc(C)on1)C(=O)N[C@H](C(=O)N[C@@H](CC(C)C)C(=O)[C@@]1(C)CO1)C(C)C` [Compound (029)], the “proteasome CT-L inhibition” value is greater than 70%.

In the case of `COC[C@H](NC(=O)c1cc(C)on1)C(=O)N[C@@H](Cc1cscn1)C(=O)N[C@@H](CC(C)C)C(=O)[C@@]1(C)CO1` [Compound (039)], the “proteasome CT-L inhibition” value is greater than 75%.

As to `Cc1cc(C(=O)N[C@@H](Cc2ccccn2)C(=O)N[C@@H](Cc2ccccc2)C(=O)N[C@@H](CC(C)C)C(=O)[C@@]2(C)CO2)no1` [Compound (055)], the “proteasome CT-L inhibition” value is given as greater than 80%.

In the case of `COC[C@H](NC(=O)c1ccon1)C(=O)N[C@@H](COC)C(=O)N[C@@H](CC(C)C)C(=O)[C@@]1(C)CO1` [Compound (083)], the “proteasome CT-L inhibition” value is greater than 80%.

Consider `COC[C@H](NC(=O)c1cc(C)no1)C(=O)N[C@@H](COC)C(=O)N[C@@H](CC(C)C)C(=O)[C@@]1(C)CO1` [Compound (085)], for which the “proteasome CT-L inhibition” value is greater than 50%.

The same assay, now with this note: 40 mg/kg PO, one hour post-dosing, vs vehicle-dosed cohort.
In the case of `COC[C@H](NC(=O)c1cc(C)on1)C(=O)N[C@@H](Cc1ccccc1)C(=O)N[C@@H](CC(C)C)C(=O)[C@@]1(C)CO1` [Compound (010)], the “proteasome CT-L inhibition” value is greater than 90%.

Take `CC(C)C[C@H](NC(=O)c1cc(CN2CCOCC2)on1)C(=O)N[C@@H](Cc1ccccc1)C(=O)N[C@@H](CC(C)C)C(=O)[C@@]1(C)CO1` [Compound (023)]: the “proteasome CT-L inhibition” value is on record as greater than 80%.

Turning to `CC(C)C[C@H](NC(=O)[C@H](Cc1ccccc1)NC(=O)[C@@H](NC(=O)c1cc(CN2CCOCC2)on1)C(C)C)C(=O)[C@@]1(C)CO1` [Compound (061)], the “proteasome CT-L inhibition” value is greater than 80%.

For the molecule `COCC[C@H](NC(=O)c1cc(C(C)C)on1)C(=O)N[C@@H](Cc1ccccc1)C(=O)N[C@@H](CC(C)C)C(=O)[C@@]1(C)CO1` [Compound (068)], the “proteasome CT-L inhibition” value was greater than 70%.
